Reference: patent US20260285849A1, “METHYLOPHIOPOGONONE A DERIVATIVE, AND PREPARATION AND USE THEREOF” (INSTITUTE OF MATERIA MEDICA, CHINESE ACADEMY OF MEDICAL …, priority 2022, published 2026)

Columns and labels:
H9C2 cardiomyocytes = experiment: Angiotensin II (Ang II)-induced cardiomyocyte hypertrophy model, crystal violet, cell surface area; format: cell-based, rat; settings: for number of cardiomyocytes (decrease in cell number caused by AngII): 0.5 μM and 1 μM, 40 μM AngII 24 h; for surface area of a single cardiomyocyte, View 1 / surface area of a single cardiomyocyte, View 2 / surface area of a single cardiomyocyte, View 3 / surface area of a single cardiomyocyte, View 4 / surface area of a single cardiomyocyte, View 5 / Myocardial surface area: 40 μM Ang II 24 h; for surface area of a single cardiomyocyte, View 1: field of view 1; for surface area of a single cardiomyocyte, View 2: field of view 2; for surface area of a single cardiomyocyte, View 3: field of view 3; for surface area of a single cardiomyocyte, View 4: field of view 4; for surface area of a single cardiomyocyte, View 5: field of view 5; for Myocardial surface area: mean of 5 views
Experimental: Adjust the H9C2 cardiomyocytes in the logarithmic growth phase to a density of 1.2×10^5 cells/well and inoculate them into six-well plates. […] After culturing for 24 hours, the drug administration groups are added with 40 μM Ang II and the corresponding concentrations of drugs. The Ang II+diltiazem 10 μM group is added with 40 μM Ang II and 10 μM diltiazem. The Ang II model group is added with 40 μM Ang II and an equal volume of DMSO. The blank control group is added with an equal volume of DMSO. Then, continue culturing for 24 hours. Discard the culture medium, wash the cells 3 times with PBS. Add 1 mL of methanol to each well and fix the cells at −20° C. for 20 minutes, and then let them return to room temperature. After discarding the methanol, add 1 mL of 0.5% crystal violet staining solution to each well and stain for 10 minutes. Wash the cells with clean water and take pictures under an inverted microscope. Randomly select fields of view for photographing. Use Image J software to measure the sum of the surface areas of all cardiomyocytes in the field of view and count the number of cells in the field of view at the same time to obtain the surface area of each cardiomyocyte. The surface area of a single cardiomyocyte=the sum of the surface areas of all cardiomyocytes in the field of view/the number of cardiomyocytes in the field of view.

[1] = tested on: mice with isoproterenol (ISO)-induced ischemic heart disease; experiment: ISO-induced ischemic heart disease mouse model: serum ANP and NT-proBNP (ELISA); format: in vivo; settings: ISO 40 mg/kg s.c. 7 times
Experimental: Male C57BL/6 mice were allowed to acclimate to the environment and then randomly divided into 9 groups, namely the blank control group, the ISO model group, the ISO+diltiazem 20 mg/kg positive control drug group, the ISO+Formula I (0.1, 0.5, 2 mg/kg) groups, and the ISO+Formula II (0.1, 0.5, 2 mg/kg) groups. Mice in the drug administration groups were intragastrically administered the corresponding doses of Formula I and Formula II compounds once a day at the same time. Mice in the positive drug diltiazem group were intragastrically administered the corresponding dose of diltiazem once a day. Mice in the blank control group and the model group were given the same amount of solvent (0.5% CMC-Na). The administration volume was 10 mL/kg, and the administration was continuous for 11 days.
From the 4th to the 10th day of drug administration, ISO modeling was carried out. The blank control group was subcutaneously injected with normal saline, and mice in the other groups were subcutaneously injected with ISO at a dose of 40 mg/kg (modeling was performed 2 hours after drug administration), for a total of 7 times.
Detection of Myocardial Hypertrophy/Heart Failure Biomarkers: After the drug administration ended, the animals' eyes were enucleated to collect blood. The blood was left to stand at room temperature for 2 hours, and then centrifuged at 3500 rpm for 20 minutes to separate the serum. The contents of serum ANP and NT-proBNP were determined according to the instructions of the ELISA kit.

[2] = 0.1 mg/kg intragastric once a day 11 days
[3] = 0.5 mg/kg intragastric once a day 11 days
[4] = 2 mg/kg intragastric once a day 11 days

Structure (SMILES)	number of cardiomyocytes (decrease in cell number caused by AngII) (H9C2 cardiomyocytes; 0.1 μM)	surface area of a single cardiomyocyte, View 1 (H9C2 cardiomyocytes; 0.1 μM)	surface area of a single cardiomyocyte, View 2 (H9C2 cardiomyocytes; 0.1 μM)	surface area of a single cardiomyocyte, View 3 (H9C2 cardiomyocytes; 0.1 μM)	surface area of a single cardiomyocyte, View 4 (H9C2 cardiomyocytes; 0.1 μM)	surface area of a single cardiomyocyte, View 5 (H9C2 cardiomyocytes; 0.1 μM)	Myocardial surface area (H9C2 cardiomyocytes; 0.1 μM)	surface area of a single cardiomyocyte, View 1 (H9C2 cardiomyocytes; 0.5 μM)	surface area of a single cardiomyocyte, View 2 (H9C2 cardiomyocytes; 0.5 μM)	surface area of a single cardiomyocyte, View 3 (H9C2 cardiomyocytes; 0.5 μM)	surface area of a single cardiomyocyte, View 4 (H9C2 cardiomyocytes; 0.5 μM)	surface area of a single cardiomyocyte, View 5 (H9C2 cardiomyocytes; 0.5 μM)	Myocardial surface area (H9C2 cardiomyocytes; 0.5 μM)	surface area of a single cardiomyocyte, View 1 (H9C2 cardiomyocytes; 1 μM)	surface area of a single cardiomyocyte, View 2 (H9C2 cardiomyocytes; 1 μM)	surface area of a single cardiomyocyte, View 3 (H9C2 cardiomyocytes; 1 μM)	surface area of a single cardiomyocyte, View 4 (H9C2 cardiomyocytes; 1 μM)	surface area of a single cardiomyocyte, View 5 (H9C2 cardiomyocytes; 1 μM)	Myocardial surface area (H9C2 cardiomyocytes; 1 μM)	ANP [1, 2]	further results
Cc1c(O)cc(O)c2c(=O)c(Cc3ccc4c(c3)OCO4)coc12 [Formula II, 3-(benzo[d][1,3]dioxol-5-ylmethyl)-5,7-dihydroxy-8-methyl-4H-chromen-4-one]	significantly improve the decrease in cell number caused by AngII	346.49 μm^2	347.86 μm^2	326.61 μm^2	381.47 μm^2	353.63 μm^2	351.21 ± 17.66^### μm^2	420.10 μm^2	338.84 μm^2	355 μm^2	334.83 μm^2	342.18 μm^2	358.19 ± 31.68^### μm^2	365.93 μm^2	372.44 μm^2	366.76 μm^2	392.9 μm^2	373.9 μm^2	374.39 ± 9.76^### μm^2	303.60 ± 37.76 pg/mL	NT-proBNP [1, 2]: 34.07 ± 4.10 pg/mL; ANP [1, 3]: 264.38 ± 27.96 pg/mL; NT-proBNP [1, 3]: 31.31 ± 2.24 pg/mL; ANP [1, 4]: 258.19 ± 52.28 pg/mL; NT-proBNP [1, 4]: 31.12 ± 2.33 pg/mL
O=c1c(Cc2ccc3c(c2)OCO3)coc2cc(O)cc(O)c12 [Formula I]	significantly improve the decrease in cell number caused by AngII	362.68 μm^2	351.69 μm^2	344.78 μm^2	338.55 μm^2	410.64 μm^2	361.67 ± 25.76^### μm^2	404.40 μm^2	360.65 μm^2	322.34 μm^2	283.2 μm^2	334.96 μm^2	341.11 ± 40.33^### μm^2	312.97 μm^2	300.38 μm^2	328.43 μm^2	331.13 μm^2	303.72 μm^2	315.33 ± 12.53^### μm^2	301.02 ± 58.98 pg/mL	NT-proBNP [1, 2]: 39.35 ± 2.83 pg/mL; ANP [1, 3]: 295.85 ± 57.72 pg/mL; NT-proBNP [1, 3]: 43.52 ± 6.06 pg/mL; ANP [1, 4]: 289.01 ± 50.17 pg/mL; NT-proBNP [1, 4]: 40.47 ± 7.15 pg/mL
